These results are taken from patent US8304420B2, “Substituted quinazolines for reducing platelet count” (Shire LLC, priority 2006, dated 2012).

Series [1] is described as follows: Solubilities of salts in three solvents (Example 2). To be noted: for solubility at 3 min: 20 °C, thermodynamic from solid.
Method: (§1) The solubilities of various salts was investigated in three solvents [distilled water (pH 5.0), 50 mM ammonium formate (pH 7.9) and 0.1 M hydrochloric acid (pH0.6)]. An excess of the salt was suspended in the chosen medium and sonicated for 3 minutes. The mixture was centrifuged for 10 minutes, the supernatant liquid was collected and the solubility was measured.
Series [2] can be described thus: Conversion of prodrug to anagrelide in human plasma (LC/MS-MS). The class given is in vitro ADME. The note with it: spiked 100 ng/mL, room temperature, first point of measurement immediately after mixing. The procedure:
Such prodrugs are likely to be extremely rapidly and completely cyclised in plasma to the closed ring 3-alkylanagrelide analogues. […] Human plasma was spiked with anagrelide prodrug (final concentration 100 ng/mL). Immediately after mixing, and at 15, 30, 45 and 60 minutes afterward samples were analysed for anagrelide prodrug and anagrelide.

For series [3] the following is noted: dog, in vivo. The procedure: The potential benefit of improved water solubility on the absorption of these open-ring analogues was shown in a comparative bioavailability study in the dog. Using the unsubstituted ethyl-5,6-dichloro-3,4-dihydro-2-(1H)-iminoquinazoline-3-acetate HBr as a model compound, a comparison was made of the systemic availability of anagrelide when given as this compound or as anagrelide itself in equimolar doses (7.7 & 6.1 mg/kg respectively).
The metabolite-to-drug exposure ratio after anagrelide was 1.5 compared to 0.9 after the prodrug.
The lesser variability was consistent with more efficient absorption. This study illustrated the potential benefits of the open-ring prodrugs to improve absorption.

Series [4] is described as follows: Aqueous solubility / solubility-pH profile.
A short description of another series: physchem. The note with it: 20 °C, pH 5, water, thermodynamic from solid.
For series [5], the system named is differentiation of human CD34+ stem cells into megakaryocytes. In words: In vitro anti-megakaryocytic activity (model of megakaryocytopoiesis). Type of series: cell-based. From the text:
Such activity may be assessed using a well established model. Assessment of the in vitro anti-megakaryocytic activity—and potentially therefore the platelet lowering capability—of the anagrelide prodrugs can be determined using the model of megakaryocytopoiesis (Cohen-Solal et al., Thromb. Haemost. 1997, 78:37-41 and Cramer et al, Blood, 1997, 89:2336-46). This involves examining the differentiation of human CD34^+ stem cells into megakaryocytes which ultimately give rise to blood platelets.

The test system of the next series is PDEIII. The series can be described thus: PDEIII inhibition. The note with it: more potent than anagrelide itself. Type of series: biochemical.
A short description of series [6]: Plasma exposure to metabolite after treatment with anagrelide. Type of series: in vivo.
The nature of series [7]: Radiolabelling study in humans, oral 14C-labelled drug. Type of series: in vivo. On the procedure: Anagrelide HCl itself is a poorly soluble drug substance. In the pH range of 4-8, the solubility is less than 10 μg/mL. […] Thus over much of the physiological pH range the drug has very poor aqueous solubility. Even material dissolving in the stomach at pH 1-2 may precipitate in the duodenum at pH 5-6. This presents potential problems for the quantitative absorption from the most likely site for absorption, namely the upper small intestine. As a consequence anagrelide is micronised prior to filling into capsules for clinical use to ensure maximal absorption. […] However for those patients requiring larger doses either as the result of relative insensitivity to the drug, higher first-pass pre-systemic metabolism or greater body weight, the possibility exists for incomplete absorption. This would be expected to lead to increased variability in attained plasma drug concentrations and consequential variability in patient response.

The mark [8] stands for this setting: 50 mM ammonium formate, pH 7.9, aqueous buffer.
The mark [9] stands for this setting: 0.1 M hydrochloric acid, pH 0.6, simulated gastric fluid.
[10] abbreviates: estimated from the solubility/pH profile.

Read-outs that look alike come from different tables or passages of the source. Marks after values point to notes of the source that are not given here.

By solubility is commonly meant the dissolved amount per volume that the medium holds. A word on the IC50: it is the concentration that inhibits the measured activity by half. The low end stands for higher potency, the high end for lower potency.

Method for physchem: as §1

As to `Br.CC1(C)C(=O)NC2=Nc3ccc(Cl)cc3CN21`, the solubility at 3 min in [1] (setting [8]) is 4 µg/mL; in [1] (setting [9]) it was 215 µg/mL; in [1] (distilled water, pH 5, water), 20 µg/mL.
For `Br.COC(=O)C1(N2Cc3c(ccc(Cl)c3Cl)N=C2N)CC1`, the solubility at 3 min in series [1] (setting [9]) is 6430 µg/mL; in series [1] (distilled water, pH 5, water) it was 7060 µg/mL. For the same compound, the “Solubility, Ammonium formate (50 mM, pH 7.9)” value in series [1] (ca. 20° C., 50 mM ammonium formate, pH 7.9) is “unstable”.
Consider `Br.CCOC(=O)CN1Cc2c(ccc(Cl)c2Cl)NC1=N` [ethyl-5,6-dichloro-3,4-dihydro-2-(1H)-iminoquinazoline-3-acetate HBr], for which, in series [2], the “prodrug found in human plasma (conversion to anagrelide)” value is “no prodrug could be found”. For the same compound, in [3] (po), the “AUC for anagrelide, range across dogs” value is given as 367-1470 ng.hmL^−1; the “Cmax for anagrelide, range across dogs” value is recorded as 170-418 ngmL^−1; the metabolite-to-drug exposure ratio is 0.9. Moreover, in series [3] (po, 6.1 mg/kg), the “fold higher Cmax for anagrelide than when the drug itself was administered” value is listed as “approximately 17 fold” and the “mean fold higher AUC for anagrelide than when the drug itself was administered” value amounted to 16 fold. Besides, the solubility in series [4] (distilled water) was approximately 5.5 mg/mL.
Turning to `Cl.O=C1CN2Cc3c(ccc(Cl)c3Cl)N=C2N1`, the solubility at 3 min is 10 µg/mL in “physchem”, 11 µg/mL in [1] (setting [8]) and 169 µg/mL in [1] (setting [9]).
For `Br.O=C1NC2=Nc3ccc(Cl)c(Cl)c3CN2C12CC2`, the solubility at 3 min in series [1] (setting [8]) is 1 µg/mL; in series [1] (setting [9]), 35 µg/mL; in [1] (distilled water, pH 5, water), 2 µg/mL.
In series [5], `CC1(C)C(=O)NC2=Nc3ccc(Cl)c(Cl)c3CN21` [3, 3, dimethyl anagrelide] yielded an IC50 of approximately 160 nM.
With `O=C1NC2=Nc3ccc(Cl)c(Cl)c3CN2C1O` (stereo not drawn) [3-hydroxyanagrelide], in the series on PDEIII, the “potency as inhibitor of PDEIII relative to anagrelide” value is recorded as approximately 40 fold. In series [6], the “plasma exposure to metabolite relative to the drug itself” value is “three times greater”.
`Cl.O.O=C1CN2Cc3c(ccc(Cl)c3Cl)N=C2N1` [anagrelide, 6,7-Dichloro-1,5-dihydroimidazo[2,1-b]-quinazolin-2(3H)-one hydrochloride monohydrate]: the IC50 in series [5] (hydrochloride monohydrate) was approximately 27 nM. In addition, in series [7] (implied from urinary recovery after oral 1 mg), the absorption is more than 75%. Moreover, the “administered radioactivity recovered in the urine” value in series [7] (oral 1 mg 14C-labelled drug) is listed as more than 75%. Also, in series [3] (po), the “AUC for anagrelide, range across dogs” value is on record as 21.6-188 ng.hmL^−1 and the “Cmax for anagrelide, range across dogs” value is on record as 9.5-44.3 ngmL^−1. The compound also returned an inherent absorption in [3] (male, 6.1 mg/kg) of less than 6.25%. In addition, in series [3] (male, po), the metabolite-to-drug exposure ratio is on record as 1.5. In series [3] (male, po, 6.1 mg/kg), the “AUC0-t of 3-hydroxy anagrelide, mean” value is 128 ng·h/mL; the “AUCinfin of 3-hydroxy anagrelide, mean” value was 79.9 ng·h/mL; the “Cmax of 3-hydroxy anagrelide, mean” value stood at 24.9 ng/mL; the “Tmax of 3-hydroxy anagrelide, median” value is 1.5^b hours. The “t½ of 3-hydroxy anagrelide, calculated as ln2/(mean rate constant)” value in series [3] (male, po, 6.1 mg/kg) is on record as 2.6^e hours. Also, in series [4] (setting [10]), the “dissociation constant pKa1” value is on record as 2.9 and the “dissociation constant pKa2” value is reported as 9.8.
Regarding `CC(C)(C(=O)[O-])N1Cc2c(ccc(Cl)c2Cl)N=C1N.[Na+]`, the solubility at 3 min in series [1] (setting [8]) is 16 µg/mL; in series [1] (setting [9]), 46 µg/mL; in [1] (distilled water, pH 5, water), 7340 µg/mL.
